Data from PMC7770833, “Design, Synthesis, and Biological Evaluation of a Series of Oxazolone Carboxamides as a Novel Class of Acid Ceramidase Inhibitors” (Journal of Medicinal Chemistry, 2020).

Assays:
[1] = In vivo PK study in C57BL/6 mice; set-up: species or system mouse
Experimental: C57 B6/J male mice, 8 weeks old (22–24 g), were used (Charles River, Calco). All procedures were performed in accordance with the Ethical Guidelines of European Communities Council (Directive 2010/63/EU of 22 September 2010) and accepted by the Italian Ministry of Health. All efforts were made to minimize animal suffering and to use the minimal number of animals required to produce reliable results, according to the “3Rs rules”. Animals were group-housed in ventilated cages and had free access to food and water. They were maintained under a 12 h light/dark cycle (lights on at 8:00 am) at a controlled temperature (21 ± 1 °C) and relative humidity (55 ± 10%). 32b was administrated intravenously (i.v.) at 3 mg/kg/5 mL, vehicle: PEG400/Tween 80/saline solution (10/10/80% in volume, respectively) via tail vein injection and via oral administration (p.o.) at 10 mg/kg/10 mL, vehicle: PEG400/Tween 80/saline solution (10/10/80% in volume, respectively) by an oral gavage. Sample collection. Samples were collected at 5 min, 15 min, 30 min, 1 h, 2 h, and 4 h (i.v. administration) and at 15 min, 30 min, 1 h, 2 h, 4 h, and 6 h (p.o. administration). N = 3 animals per dose time point were treated. Plasma samples were centrifuged at 21,100g for 15 min at 4 °C. An aliquot of each sample was extracted (1:3) with cold CH3CN containing 200 nM of an appropriate internal standard being a close analogue of compound 32b. A calibration curve was prepared in blank mouse plasma over a 1 nM–10 μM range. Three quality controls were prepared by spiking compound 32b in the blank mouse plasma to 20, 200, and 2000 nM as final concentrations. The calibrators and quality controls were extracted (1:3) with the same extraction solution as the plasma samples. The plasma samples, the calibrators, and quality controls were centrifuged at 3270 × g for 15 min at 4 °C. The supernatants were further diluted (1:1) with H2O and analyzed by LC/MS–MS on a Waters Acquity UPLC/MS TQD system consisting of TQD) MS equipped with an ESI interface and a PDA detector. ESI was applied in positive mode. Compound-dependent parameters such as MRM transitions and collision energy were developed for compound 32b and the internal standard. The analyses were run on an Acquity UPLC BEH C18 (50 × 2.1 mm ID, particle size 1.7 μm) with a VanGuard BEH C18 pre-column (5 × 2.1 mm ID, particle size 1.7 μm) at 40 °C. For plasma samples, the mobile phase was H2O + 0.1% HCOOH (A) and CH3CN + 0.1% HCOOH (B) at a flow rate = 0.5 mL/min. A linear gradient was applied starting at 20% B with an initial hold for 0.2 min, then 20–100% B in 2 min. All samples (plasma samples, calibrators, and quality controls) were quantified by a MRM peak area response factor in order to determine the levels of compound 32b in the plasma. The concentrations versus time were plotted and the profiles were fitted using PK Solutions Excel Application (Summit Research Service, USA) in order to determine the PK parameters.

[2] = tested on: human neuroblastoma SH-SY5Y cells; assay: Sphingolipid levels in SH-SY5Y cells (LC/MS); type: cell-based
Experimental: SH-SY5Y cells were purchased from Sigma Aldrich (Italy) and cultured in DMEM containing 10% FBS at 37 °C and 5% CO2. Drugs were dissolved in DMSO (10 mM) and diluted in cell culture medium with reduced serum (1%) for cell treatments.
Lipid extraction and SL measurements were performed as previously described.[59],[61],[75] Lipids were extracted with a CHCl3/MeOH mixture (2:1, 3 mL) spike with internal standards. The organic phase was collected, dried under N2, and dissolved in CHCl3/MeOH (1:3) for LC/MS analyses. Ceramides and sphingosine were analyzed by LC/MS/MS, using a Waters Acquity UPLC coupled to a Waters Xevo triple quadrupole mass spectrometer (TQMS) and interfaced with an ESI ion source. Separation was performed on a Waters Acquity BEH C18 1.7 μm column (2.1 × 50 mm) at 60 °C. A linear gradient of 0.1% HCOOH in CH3CN/i-PrOH (20:80) as solvent B in 0.1% HCOOH in CH3CN/H2O (20:80) as solvent A and was applied at a flow rate of 0.4 mL/min. The detection of SLs was performed in positive ion mode. Capillary voltage was 3.5 kV and cone voltage was 25 V. The source temperature and desolvation temperatures were set at 120 and 600 °C, respectively. Desolvation gas and cone gas (N2) flows were 800 and 20 L/h, respectively. Ceramides were identified by comparison of their LC retention times and MS/MS fragmentation patterns with those of authentic standards (Avanti Polar Lipids). Multiple reaction monitoring (MRM) ion chromatograms were used to quantify dihydroceramide (Cer(d18:0/16:0), Rt = 4.6 min, m/z: 540.5 > 522.5), palmitoyl ceramide (Cer(d18:1/16:0), Rt = 4.5 min, m/z: 520.3 > 264.2) sphingosine (So(d18:1), Rt = 2.6 min, m/z: 300.2 > 282.2), sphingomyelin (SM(d18:1/16:0), Rt = 4.2 min, m/z: 703.2 > 184.1) and hexosylceramide (HexCer (d18:1/16:0), 4.3 min, m/z: 682.2 > 264.2). Detection and analysis were controlled by Waters MassLynx software version 4.1. Calibration curves were prepared for every experiment.

Structure (SMILES): CCCCCNC(=O)n1cc(-c2ccc(F)cc2C2CCN(C)CC2)oc1=O [Compound 32b, 5-[4-Fluoro-2-(1-methyl-4-piperidyl)phenyl]-2-oxo-N-pentyl-oxazole-3-carboxamide]
- Vdss (mL/kg) ([1]; 10 mg/kg, p.o.): 32 877 mL/kg
- AUC at 4 h ([1]; male, mouse, iv, 3 mg/kg, plasma): 533 ng·h/mL
- clearance at 4 h ([1]; male, mouse, plasma, iv, 3 mg/kg): 72 mL/min/kg
- Vd at 4 h ([1]; male, mouse, plasma, iv, 3 mg/kg, i.v., read-out: Vdss (converted)): 12.4 L/kg
- AUC at 4 h ([1]; male, mouse, po, 10 mg/kg, plasma): 709 ng·h/mL
- Cer (d18:0/16:0) level ([2]; 10 μM, time course up to 6 h): increased
- Cer (d18:1/16:0) level ([2]; 10 μM, time course up to 6 h): increased
- HexCer (d18:1/16:0) level ([2]; 10 μM, time course up to 6 h): No major variations
- SM (d18:1/16:0) level ([2]; 10 μM, time course up to 6 h): No major variations
- So levels ([2]; 10 μM, time course up to 6 h): decreased
- Cer (d18:0/16:0) level ([2]; 3 h incubation, 1-10 μM): accumulation
- Cer (d18:1/16:0) level ([2]; 3 h incubation, 1-10 μM): accumulation
- HexCer (d18:1/16:0) level ([2]; 3 h incubation, 1-10 μM): no major variations
- SM (d18:1/16:0) level ([2]; 3 h incubation, 1-10 μM): no major variations
- So levels ([2]; 3 h incubation, 1-10 μM): decrease
